Values of other authors as cited in publication PMC12308805, “Ultrahigh-Throughput Virtual Screening Strategies against PPI Targets: A Case Study of STAT Inhibitors” (Journal of Chemical Information and Modeling, 2025).
Square brackets hold non-standard residues; d marks the D form. Peptide text beside a SMILES is read from it. * marks the point of attachment. Isobutyryl = CC(C)C(=O)*

System: STAT3
Details: sheet 6QHD_actives_decoys, retrospective screening set for STAT3 SH2 domain (PDB 6QHD); decoys are presumed inactives, not tested; ref DUD-E; cited from earlier work

Compound | Type
COc1ccccc1NCc1nnc(SCC(=O)Nc2ccc3c(c2)C(O)=NC3=O)n1-c1ccccc1 [Decoy768] | Inactive (Decoy)
CCOC(=O)c1c(NC(=O)CCSc2nnc(COC)n2N)sc2c1CCCC2 [Decoy934] | Inactive (Decoy)
C[n+]1c(N[N-]S(=O)(=O)c2cccc(C(=O)NC(C)(C)CC(C)(C)CC(C)(C)C)c2)sc2ccc(S(=O)(=O)C(F)F)cc21 [Decoy889] | Inactive (Decoy)
COc1ccc(CNc2nc(NCc3ccc(OC)c(OC)c3)n(C(=O)c3ccc(C(C)(C)C)cc3)n2)cc1OC [Decoy921] | Inactive (Decoy)
COc1cc(-c2ccc(/N=N/c3cc(S(=O)(=O)O)c4ccccc4c3O)c(OC)c2)ccc1/N=N\c1c(S(=O)(=O)O)cc2cc(C(=O)O)c(O)cc2c1O [Decoy859] | Inactive (Decoy)
COc1cc([C@H]2c3cc(OC)c(O[C@H]4O[C@@H](CO)[C@@H](O)[C@@H](O)[C@H]4O)c(OC)c3C[C@H](CO)[C@@H]2CO)cc(OC)c1O [Decoy824] | Inactive (Decoy)
CCN(CC)Cc1c(C(=O)N/N=C/c2cc(Cl)ccc2OCc2c(F)cccc2Cl)nnn1-c1nonc1N [Decoy844] | Inactive (Decoy)
COc1cc(/C(C)=N/NC(=O)c2nnn(-c3nonc3N)c2COc2ccc(F)cc2)ccc1OCc1ccc(Cl)cc1 [Decoy887] | Inactive (Decoy)
CCOC(=O)c1c(NC(=O)CSc2n[nH]c(N/N=C/c3c[nH]c4ccccc34)n2)sc2c1CCC2 [Decoy751] | Inactive (Decoy)
CCOC(=O)c1c(C)[nH]c(C(=O)OCC(=O)NCC(=O)Nc2ccc(F)c(F)c2F)c1C [Decoy761] | Inactive (Decoy)
CCOC(=O)N[C@@](Nc1ccc(S(=O)(=O)Nc2ncccn2)cc1)(C(=O)OCC)C(F)(F)F [Decoy792] | Inactive (Decoy)
CNC(=O)[C@H](CC(C)C)NC(=O)[C@H](Cc1c[nH]cn1)NC(=O)[C@@H](C)NC(=O)[C@@H](NC(=O)[C@H](C)NC(=O)[C@H](Cc1c[nH]c2ccccc12)NC(=O)[C@H](Cc1c[nH]cn1)NC(=O)C(C)C)C(C)C [Decoy804] (Isobutyryl-HWAV[dA]HL-NHMe) | Inactive (Decoy)
CCCCOC(=O)C1=C(C)Nc2nc(SCc3ccccc3Cl)nn2[C@@H]1c1ccccc1C(=O)O [Decoy762] | Inactive (Decoy)

Same assay, conditions: sheet 6QHD_actives_decoys; known STAT3 actives of the retrospective screening set; ref ChEMBL / literature; cited from earlier work

Compound | Type (known STAT3 active)
O=C(O)CCCNC(=O)[C@@H]1Cc2cccc3c2N1C(=O)[C@@H](NC(=O)/C=C/c1ccc(OP(=O)(O)O)cc1)CC3 [CHEMBL475488] | Active
CCCC[C@H](CCC(N)=O)NC(=O)[C@@H]1[C@@H]2C[C@@H]2CN1C(=O)[C@H](CC(C)C)NC(=O)/C=C/c1ccc(OP(=O)(O)O)cc1 [CHEMBL583116] | Active
CC(C)C[C@H](NC(=O)/C=C/c1ccc(OP(=O)(O)O)cc1)C(=O)N1CCC[C@H]1C(=O)N[C@@H](COC(N)=O)C(=O)NCc1ccccc1 [CHEMBL414034] | Active
NC(=O)CC[C@H](NC(=O)[C@@H]1Cc2cccc3c2N1C(=O)[C@@H](NC(=O)c1cc2cc(OP(=O)(O)O)ccc2[nH]1)CC3)C(=O)NCc1ccccc1 [CHEMBL452194] | Active

Same assay, conditions: sheet 6QHD_actives_decoys; retrospective screening set for STAT3 SH2 domain (PDB 6QHD); […]; ref DUD-E; cited from earlier work

Compound | Type
O=c1c(C[C@H](O)CN2CCOCC2)c(O)n(C[C@H](O)CN2CCOCC2)c(=O)n1C[C@H](O)CN1CCOCC1 [Decoy680] | Inactive (Decoy)
Cc1cc(NS(=O)(=O)c2ccc(NC(=S)NC(=O)COc3ccc([N+](=O)[O-])cc3)cc2)no1 [Decoy494] | Inactive (Decoy)
CO[C@@H]1C[C@H](O[C@H]2CC[C@]3(/C=N/CC#N)[C@H]4CC[C@]5(C)[C@@H](C6=CC(=O)OC6)CC[C@]5(O)[C@@H]4CC[C@]3(O)C2)O[C@@H](C)[C@@H]1O [Decoy348] | Inactive (Decoy)
COc1cc([N+](=O)[O-])ccc1NC(=S)Nc1ccc(S(=O)(=O)Nc2ccc(Cl)nn2)cc1 [Decoy332] | Inactive (Decoy)

Same assay, conditions: sheet 6QHD_actives_decoys; retrospective screening set for STAT3 SH2 domain (PDB 6QHD); decoys generated with DUD-E and presumed inactive, not tested; ref DUD-E; cited from earlier work

Compound | Type
NS(=O)(=O)c1ccc(CCNC(=O)CCCCCn2c(=S)[nH]c3ccc(N4CCOCC4)cc3c2=O)cc1 [Decoy490] | Inactive (Decoy)
CCOC(=O)c1ccc(NC(=O)CSc2nnc(CNC(=O)COc3ccccc3)n2-c2cccc(C)c2)cc1 [Decoy473] | Inactive (Decoy)
CC(=O)N[C@@H]1[C@@H](OC(C)=O)[C@H](OC(C)=O)[C@@H](COC(C)=O)O[C@H]1Sc1nnc(COc2ccccc2C)n1C1CCCC1 [Decoy405] | Inactive (Decoy)
C=C1N=C2C[C@H](c3ccc(OC)c(OC)c3)CC(=O)C2[C@H](c2cc(Br)c(O)c(OCC)c2)C1C(=O)OCCOCC (some centres unmarked) [Decoy369] | Inactive (Decoy)
CC(=O)O[C@@H]1[C@H](O)[C@H](CO)O[C@H](OCC2=CO[C@H](OC(=O)CC(C)C)[C@H]3[C@H]2C[C@H](OC(C)=O)[C@@]3(C)O)[C@@H]1OC(C)=O [Decoy569] | Inactive (Decoy)
C[N+]1=C(/C=C/C=C2/N(CCCCC(=O)NCCOCCOCCNCCO[C@H]3O[C@@H](CO)[C@@H](O)[C@H](O)[C@H]3O)c3ccccc3C2(C)C)C(C)(C)c2ccccc21 [Decoy589] | Inactive (Decoy)
COc1cc(C[C@H]2CO[C@H](c3ccc(O)c(OC)c3)[C@@H]2CO[C@H]2O[C@@H](CO)[C@@H](O)[C@@H](O)[C@H]2O)ccc1O [Decoy715] | Inactive (Decoy)
CC(=O)N[C@@H]1[C@H]([C@H](O)[C@H](O)CO)O[C@@](O[C@H]2[C@@H](O)[C@@H](O[C@@H]([C@@H](O[C@@H]3O[C@@H](C)[C@H](O)[C@H](O)[C@@H]3O)[C@H](O)C=O)[C@H](O)CO)O[C@@H](CO)[C@H]2O)(C(=O)O)C[C@@H]1O [Decoy382] | Inactive (Decoy)
COc1cc(NC(=S)/N=C(\NCCc2c[nH]cn2)Nc2nc(C)cc(C)n2)c(OC)cc1Cl [Decoy651] | Inactive (Decoy)
CCOc1ccc(NC(=O)CSC2=C(C#N)[C@H](c3ccco3)C(C(=O)Nc3ccc(OC)cc3)=C(C)N2)cc1 [Decoy721] | Inactive (Decoy)
COc1ccc(CCC(=O)O)c([C@H](CC(=O)O)C(=O)O)c1OS(=O)(=O)c1ccc(C)cc1 [Decoy549] | Inactive (Decoy)
CCOc1ccc([C@@H]2C(C(=O)c3ccc(Cl)cc3)=C(O)C(=O)N2CCCn2ccnc2)cc1OCC [Decoy645] | Inactive (Decoy)
COc1cc(/C=N/Nc2nc(SCC(=O)Nc3cc(F)ccc3C)n[nH]2)cc(OC)c1OC [Decoy676] | Inactive (Decoy)
CCCCCCCCCC(=O)O[C@@H]1[C@@H](O[C@@]2(CO)O[C@@H](CO)[C@@H](O)[C@H]2O)O[C@@H](CO)[C@@H](OC(=O)C(C)C)[C@H]1OC(=O)C(C)C [Decoy420] | Inactive (Decoy)
CCOc1ccc([C@@H]2c3c(-c4cc(Cl)c(C)cc4O)n[nH]c3C(=O)N2CCCOC)cc1OCC [Decoy460] | Inactive (Decoy)
COc1cc(/C=N/Nc2nnc(SCC(=O)Nc3ccc(C)cc3C)n2N)cc(OC)c1OC [Decoy379] | Inactive (Decoy)
O=C(NCCCCCCNC(=O)N(CCO)[C@H]1CCS(=O)(=O)C1)N(CCO)[C@@H]1CCS(=O)(=O)C1 [Decoy656] | Inactive (Decoy)
O=C(NCCCCCCNC(=O)OCCN[C@H]1CCS(=O)(=O)C1)OCCN[C@H]1CCS(=O)(=O)C1 [Decoy454] | Inactive (Decoy)
COc1cc(/C=N/Nc2nnc(SCC(=O)NCCc3ccc(Cl)cc3)n2N)cc(OC)c1OC [Decoy559] | Inactive (Decoy)
C/C=C(/C[C@@H](O)N(C=O)Cc1cnc(C)nc1N)SS/C(=C/C)C[C@@H](O)N(C=O)Cc1cnc(C)nc1N [Decoy342] | Inactive (Decoy)
